In brackets after ≈: the same amount, converted by molar mass. Where a SMILES comes first, the peptide text is derived from it. Where no end group is shown, it is not given here. [ ]: non-standard residue; d: D form. d2Nal = N[C@H](Cc1ccc2ccccc2c1)C(=O)O
Columns and labels:
bacteria = experiment: Comparison of wild-type peptide E1A to V8LQ19L (Table 14)
Excerpt: Active peptide sequences based on ENO3 exerting significant bactericidal antibiofilm properties, and relevant to chronic wound healing are previously disclosed. The previously disclosed antimicrobial peptides (AMPs) are longer (>22-residues) in length, which would be more costly in production.

fibroblasts (HFF-1) = experiment: Cell proliferation assay, HFF-1 fibroblasts; assay type: cell-based; settings: 24 h; up to highest tested concentrations (peptide); 3% (H2O2)
[1] = system: human keratinocytes (HaCaT); experiment: Cell proliferation assay, HaCaT keratinocytes; assay type: cell-based; settings: 24 h; up to highest tested concentrations (peptide); 3% (H2O2)
Description: (§1) Wound closure was compared with the untreated samples (circle, red highlight). For improved clarity, error bars have been omitted from this representation. […] Each value is the mean±SD (n=3). Statistical significance was assessed using ANOVA for multiple comparisons (Dunnett's multiple comparisons test). **** p<0.0001, *** p<0.001, ** p<0.01, *p<0.05, ns denotes nonsignificance, p >0.05.
CyQUANT™ Direct Cell Proliferation Assay (ThermoFisher Scientific, Catalogue) was performed as per manufacturer's instructions to determine the safety of the peptides to human keratinocytes. […] The fluorescence intensity and number of stained cells were determined using the LionHeart FX Automated Microscope (BioTek, VT, USA).

[2] = system: Pseudomonas aeruginosa (PA); experiment: Time-kill assay, Pseudomonas aeruginosa; assay type: cell-based
Description: (§2) The bactericidal abilities of the variant peptides are not only effective, but also fast-acting. […] The killing kinetics are detailed in Table 11 below.
(§3) Pseudomonas aeruginosa (PA) and Staphylococcus aureus (SA) strains were grown as per CLSI guidelines. AMPs were added to the bacterial cultures at their 1X MBC concentrations. Upon treatment, the bacterial cultures were enumerated for viable counts immediately within 1 min, 5 min, 15 min, 30 min and 60 min post-treatments.

[3] = system: Pseudomonas aeruginosa (PA); experiment: Broth microdilution anti-bacterial assay (CLSI), Pseudomonas aeruginosa; assay type: cell-based, Pseudomonas aeruginosa (ATCC 14213); settings: for MIC / MBC: PA; for MIC: overnight, 37° C., ≥99% inhibition; for MBC: ≥99% killing
Description: (§4) To evaluate their anti-bacterial potency, broth microdilution method as per the CLSI guidelines 1 was used. […] The anti-bacterial potency of the tested agents is quantified using minimum inhibitory concentration (MIC) and minimum bactericidal concentration (MBC). […] To obtain the MBC data, 1X, 2X and 4× MIC of the peptide variants were plated to obtain the number of viable colonies compared to the original inoculum.
(§5) Pseudomonas aeruginosa (ATCC 14213, PA), and methicillin resistant Staphylococcus aureus (BAA1717-USA 300, SA) were obtained from The American Type Culture Collection (ATCC).
(§6) Examination of the potency of modified short peptides against PA and SA strains was performed by using the broth microdilution protocol from the Clinical and Laboratory Standards Institute (CLSI) guidelines (CLSI 2012) as described. Briefly, five freshly plated bacteria colonies were grown in cation adjusted MH2 broth (BD Biosciences) in a shaker incubator at 37° C., 220 RPM. Cells were grown to an optical density (OD600) of ~0.2 measured using a Microplate Spectrophotometer (Molecular Devices Spectra Max Plus). 100 μL of microbial culture containing ~5×10^5 CFU/mL of bacteria in the respective broths were introduced into each well containing 100 μL of peptides and incubated overnight at 37° C. Next, to check the bactericidal effects, 100 μL from each well was transferred and spread on sterile MH2 agar plates. The plates were incubated overnight at 37° C. and the number of colonies forming units (CFU) were calculated the following day. Readings of bacteria grown in media without any treatments were normalized to 100% as media control. For the mixed infection study, three freshly plated bacteria colonies each from PA, SA and ST plates were grown together in cation adjusted MH2 broth and proceeded as described above.

[4] = system: Staphylococcus aureus (SA); experiment: Broth microdilution anti-bacterial assay (CLSI), Staphylococcus aureus; assay type: cell-based; settings: SA; for MIC: overnight, 37° C., ≥99% inhibition; for MBC: ≥99% killing
Description: as §4, §5, §6

[5] = system: Staphylococcus aureus (SA); experiment: Time-kill assay, Staphylococcus aureus; assay type: cell-based
Description: as §2, §3

human keratinocytes = experiment: 2D scratch assay, keratinocyte migration; assay type: cell-based; settings: 48 h; E1AM2 3.125-12.5 μM, Q19L 3.125-6.25 μM
Description: Wound healing is directly associated with the migration speed of keratinocytes. The migration speed of human keratinocytes in presence of E1AM2, V8L (SEQ ID NO: 19), and Q19L variants is tested in comparison with pexiganan (SEQ ID NO: 54). Migration speed of human keratinocytes assessed in a 2D scratch assay at D 0 and D 2 timepoints. Decrease in wound area over time was measured by applying an ImageJ plugin ‘Wound Healing Size Tool’ on bright-field images. The change in wound area over the course of 48 hours was used as a measure of the migration speed of keratinocytes. Each value is the mean±SD (n=3). The p-value was calculated using ANOVA for multiple comparisons (Dunnett's multiple comparisons test). **** p<0.0001. *** p<0.001. ** p <0.01. * p<0.05. […] Both peptides healed wound faster within their respective MIC and MBC concentrations. […] SEQ ID NO: 27=Q19L; SEQ ID NO: 2=E1AM2; SEQ ID NO: 19=V8L.
as §1
Wound areas of the human keratinocyte culture were assessed in presence of peptides in a 2D scratch assay at the 0 hour, and 48-hour time points by applying an ImageJ plugin, ‘Wound Healing Size Tool’ on brightfield images. Quantification of wound width was calculated by obtaining the averaged Euclidean distance between each paired pixel at the lateral wound edges. The change in wound area over the course of 48 hours was used as a measure of the migration speed of keratinocytes.
Using the inverted BioTek Lionheart LX Automated Microscope, brightfield images were obtained at 4× magnification to observe the wound area at timepoints 0 (before treatment) and 48 hours-post treatment. Microscopy settings were maintained as focus offset (781.3 μm), illumination (2), integration Time (21) with no gain. To cover the entire well, montage images of four rows by three columns were stitched together by enabling the “image stitching” function and images were saved in tiff-format.

[6] = system: Pseudomonas aeruginosa (PA); experiment: Combination of peptide with antibiotics against PA; assay type: cell-based; settings: with gentamicin and piperacillin
Excerpt: In view of the results above, the peptide variants as described herein show synergistic anti-bacterial effects when used in combination with antibiotics.
In some examples, the methods described herein further comprises administering an antibiotic agent to the subject.

[7] = at 1X MBC, * indicates killing within seconds

## KVNQIGSVTESIQACKLAQSN [E1A, reference compound]
bacteria
  Cationicity: Non-cationic (cannot disrupt
  Mechanism of killing bacteria: Unknown/non-membrane
bacteria; >99% inhibition or killing, even at 500 μM
  Killing efficacy (in words): Does not achieve >99%

## OO [H2O2, hydrogen peroxide, reference compound]
Fibroblasts (HFF-1)
  cytotoxicity to HFF-1: significant cytotoxicity
[1]
  cytotoxicity to HaCaT: significant cytotoxicity

## KKLLKKWLKLSKKALKLAQSL-NH2 [V8L]
[2]; 1X MBC
  time to kill PA (in words): within minutes
[2]; [7]
  Time kill PA, >99% killing: 1* min
[3]; PA and SA
  anti-bacterial activity (in words): reduction in the minimum inhibitory concentration (MIC) and minimum bactericidal concentration (MBC) values
[3]
  MIC: 3.125 µM
  MBC: 3.125 µM
[4]
  MIC: 3.125 µM
  MBC: 3.125 µM
[5]; 1X MBC
  time to kill SA (in words): within minutes
[5]; [7]
  Time kill SA, >99% killing: >30 to 60 min
Human keratinocytes
  migration speed of keratinocytes: maintained keratinocyte migration speed

## CC(C)C[C@@H](NC(=O)[C@@H](C)NC(=O)[C@@H](CC(C)C)NC(=O)[C@@H](CCCCN)NC(=O)[C@@H](CC(C)C)NC(=O)[C@@H](C)NC(=O)[C@@H](CCCCN)NC(=O)[C@@H](CCCCN)NC(=O)[C@@H](CO)NC(=O)[C@@H](CC(C)C)NC(=O)[C@@H](CCCCN)NC(=O)[C@@H](CC(C)C)NC(=O)[C@@H](Cc1ccc2ccccc2c1)NC(=O)[C@@H](CCCCN)NC(=O)[C@@H](CCCCN)NC(=O)[C@@H](CC(C)C)NC(=O)[C@@H](CC(C)C)NC(=O)[C@@H](CCCCN)NC(=O)[C@H](N)CCCCN)C(N)=O [E1AM2 D-W72Nal V8L Q19L C-2-NH2] (H-[dK][dK][dL][dL][dK][dK][d2Nal][dL][dK][dL][dS][dK][dK][dA][dL][dK][dL][dA][dL]-NH2)
[3]
  MIC: 1.56 µM (≈ 3.53 µg/mL)
  MBC: 1.56 µM (≈ 3.53 µg/mL)
[6]
  MBC in combination with gentamicin and piperacillin: reduced minimum bactericidal concentration (MBC)
  MIC in combination with gentamicin and piperacillin: reduced minimum inhibitory concentration (MIC)
[4]
  MIC: 1.56 µM (≈ 3.53 µg/mL)
  MBC: 1.56 µM (≈ 3.53 µg/mL)

Reference: patent US20260327263A1, “Anti-Bacterial Peptides” (priority 2023, published 2026)
